The numbers were not newly measured in patent US7964202B2, “Method for treatment of common acne” (Galderma Research & Development, S.N.C., priority 2001, dated 2011), which cites them from elsewhere.

Read-outs that look alike come from different tables or passages of the source.

The conditions of data set [1]: for degradation time: 40° C.
The conditions of data set [2]: in presence of benzoyl peroxide formulation.

For the compound `O=C(OOC(=O)c1ccccc1)c1ccccc1` [Benzoyl peroxide], the Benzoyl peroxide solubility reads like this: (solvent PEG 400) 39.6 mg/g; (solvent ethanol) 17.9 mg/g; (solvent glycerol) 0.15 mg/g; (solvent propylene glycol) 2.95 mg/g; (solvent propylene glycol/water (75:25)) 0.36 mg/g; (solvent water) 0.000155 mg/g. In addition, the figures for the degradation time in data set [1] (in solution in PEG 400 (0.5 mg/g)), in data set [1] (in solution in ethanol) and in data set [1] (in solution in propylene glycol) were 1.4 days, 29 days and 53 days, respectively. Besides, the “degradation in suspension (dispersed form)” value in data set [1] (in water and propylene glycol, storage for 90 days) is “not degraded”.

Regarding `COc1ccc(-c2ccc3cc(C(=O)O)ccc3c2)cc1C12CC3CC(CC(C3)C1)C2` [adapalene], the retinoid degraded entry in data set [2] (24 hours) is recorded as “no degradation”.

As to `CC1=C(/C=C/C(C)=C/C=C/C(C)=C/C(=O)O)C(C)(C)CCC1` [tretinoin], the figures for the retinoid degraded in data set [2] (2 hours) and in data set [2] (24 hours) were 50% and 95%, respectively.
